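Results reflect a 48-hour exposure of cells in 96-well plates to compound at five concentrations. The concentration for 50% growth inhibition is given as GI50.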 The source made the active and inactive calls. Cut-off read from the data, not from the text of the source: active = GI50 up to about 1.1 µM and inactive = higher.
What was measured:
Assay in all cases: inhibition of tumour cell growth, NCI panel, 48 h
[1] = tested on: M14
[2] = tested on: NCI-H460
[3] = tested on: HOP-18
[4] = tested on: 786-0
[5] = tested on: HL-60
[6] = tested on: HT-29
[7] = tested on: K562
[8] = tested on: SN12C
[9] = tested on: SK-MEL-2
[10] = tested on: HOP-62
[11] = tested on: CAKI-1
[12] = tested on: SF-268
[13] = tested on: EKVX
[14] = tested on: Malme-3M
[15] = tested on: DMS-114
[16] = tested on: NCI-H226
[17] = tested on: NCI-H522
[18] = tested on: SNB-75
[19] = tested on: KM12
[20] = tested on: LOX IMVI
[21] = tested on: LXFL 529
[22] = tested on: XF498
[23] = tested on: HCT-116
[24] = tested on: DLD-1
[25] = tested on: SK-OV-3
[26] = tested on: HCC 2998
[27] = tested on: UACC-62
[28] = tested on: OVCAR-4
[29] = tested on: U-251
[30] = tested on: SNB-19
[31] = tested on: NCI-H23
[32] = tested on: RXF 631
[33] = tested on: A498
[34] = tested on: COLO 205
[35] = tested on: SNB-78
[36] = tested on: OVCAR-3
[37] = tested on: A549
[38] = tested on: HCT-15
[39] = tested on: ACHN
[40] = tested on: SW-620
[41] = tested on: TK-10
[42] = tested on: UACC-257
[43] = tested on: RXF 393
[44] = tested on: OVCAR-5
[45] = tested on: UO-31
[46] = tested on: SF-295
[47] = tested on: SK-MEL-28
[48] = tested on: MOLT-4
[49] = tested on: M19-MEL
[50] = tested on: OVCAR-8
[51] = tested on: SR
[52] = tested on: SK-MEL-5
[53] = tested on: KM-20L2
[54] = tested on: CCRF-CEM
[55] = tested on: SF-539
[56] = tested on: DMS-273
[57] = tested on: HOP-92
[58] = tested on: IGROV-1
[59] = tested on: MDA-MB-435
[60] = tested on: MDA-MB-231
[61] = tested on: BT-549
[62] = tested on: RPMI-8226
[63] = tested on: NCI/ADR-RES
[64] = tested on: Hs-578T
[65] = tested on: T47D
[66] = tested on: PC-3
[67] = tested on: MDA-N
[68] = tested on: DU-145
[69] = tested on: MCF7

Measured: GI50

COC(=O)C(C)(C)/N=C/N(C)C
> 100 µM: [38]
inactive: [1] > 100 µM | [2] > 100 µM | [3] > 100 µM | [4] > 100 µM | [5] 55.6 µM | [6] > 100 µM | [7] > 100 µM | [8] > 100 µM | [9] > 100 µM | [10] > 100 µM | [11] > 100 µM | [12] > 100 µM | [13] > 100 µM | [14] > 100 µM | [15] > 100 µM | [16] > 100 µM | [17] > 100 µM | [18] > 100 µM | [19] > 100 µM | [20] 68.2 µM | [21] > 100 µM | [22] > 100 µM | [23] > 100 µM | [24] > 100 µM | [25] > 100 µM | [26] > 100 µM | [27] > 100 µM | [28] > 100 µM | [29] > 100 µM | [30] > 100 µM | [31] > 100 µM | [32] > 100 µM | [33] > 100 µM | [34] > 100 µM | [35] > 100 µM | [36] > 100 µM | [37] > 100 µM | [39] > 100 µM | [40] 28.4 µM | [41] > 100 µM | [42] > 100 µM | [43] 86.5 µM | [44] > 100 µM | [45] > 100 µM | [46] > 100 µM | [47] > 100 µM | [48] > 100 µM | [49] > 100 µM | [50] > 100 µM | [51] > 100 µM | [52] > 100 µM | [53] > 100 µM | [54] 72.6 µM | [55] > 100 µM | [56] > 100 µM | [57] > 100 µM | [58] > 100 µM

COc1cccc(/C=C2\CCC(CN(C)C)C2=O)c1 (stereo unspecified)
active: [5] 0.638 µM | [7] 1.1 µM | [62] 0.995 µM | [54] 1.08 µM
2.58 µM: [38]
inactive: [1] 3.6 µM | [59] 2.61 µM | [2] 16.2 µM | [60] 4.66 µM | [3] 18.6 µM | [4] 3.5 µM | [6] 6.05 µM | [8] 5.71 µM | [9] 11.8 µM | [10] 12.1 µM | [61] 3.91 µM | [11] 6.76 µM | [12] 6.07 µM | [13] 19.3 µM | [14] 5.81 µM | [15] 13.9 µM | [16] 16.3 µM | [17] 2.56 µM | [18] 17 µM | [19] 4.11 µM | [20] 1.73 µM | [21] 2.5 µM | [22] 18.9 µM | [23] 3.07 µM | [24] 2.8 µM | [25] 15.7 µM | [26] 10.8 µM | [27] 8.24 µM | [28] 9.82 µM | [29] 12.3 µM | [30] 13.5 µM | [31] 8.09 µM | [32] 6.59 µM | [33] 16.3 µM | [63] 2.42 µM | [34] 4.35 µM | [35] 21.7 µM | [36] 5.04 µM | [64] 8.71 µM | [37] 19 µM | [39] 11.8 µM | [40] 2.21 µM | [41] 10.2 µM | [65] 2.76 µM | [42] 3.85 µM | [43] 6.07 µM | [66] 12.4 µM | [44] 12.1 µM | [45] 9.51 µM | [46] 16.6 µM | [67] 4.73 µM | [47] 3.03 µM | [48] 1.44 µM | [68] 2.74 µM | [49] 4.84 µM | [50] 3.08 µM | [69] 2.25 µM | [51] 1.69 µM | [52] 9.82 µM | [53] 15.8 µM | [55] 13.9 µM | [56] 12.2 µM | [57] 13.7 µM | [58] 8.47 µM

Nc1nc2[nH]cnc2c(=S)[nH]1 [THIOGUANINE]
1.08 µM: [38]
inactive: [60] 2.51 µM | [3] 5.64 µM | [6] 1.13 µM | [8] 1.31 µM | [61] 3.04 µM | [13] 2.03 µM | [14] 1.28 µM | [16] 4.41 µM | [18] 1.48 µM | [19] 1.71 µM | [21] 8.45 µM | [28] 1.45 µM | [29] 5.12 µM | [30] 76.9 µM | [33] 6.68 µM | [34] 1.75 µM | [35] 2.23 µM | [64] 6.28 µM | [37] 3.63 µM | [39] 1.86 µM | [40] 1.45 µM | [65] 2.07 µM | [42] 2.1 µM | [66] 1.92 µM | [45] 1.56 µM | [47] 9.4 µM | [49] 9.82 µM | [52] 3.5 µM | [58] 4.85 µM
active: [1] 0.56 µM | [59] 0.851 µM | [2] 0.624 µM | [4] 0.796 µM | [5] 1.11 µM | [7] 0.385 µM | [9] 1 µM | [10] 0.78 µM | [11] 0.621 µM | [12] 1.09 µM | [15] 0.849 µM | [17] 0.895 µM | [20] 0.207 µM | [22] 1.09 µM | [62] 0.438 µM | [23] 0.538 µM | [24] 0.962 µM | [25] 0.548 µM | [26] 0.957 µM | [27] 0.537 µM | [31] 1.1 µM | [32] 0.527 µM | [63] 0.671 µM | [36] 0.767 µM | [41] 0.962 µM | [43] 0.865 µM | [44] 0.692 µM | [46] 1.08 µM | [67] 1.01 µM | [48] 0.269 µM | [68] 0.776 µM | [50] 0.687 µM | [69] 0.701 µM | [51] 0.182 µM | [53] 0.782 µM | [54] 0.169 µM | [55] 1.05 µM | [56] 0.445 µM | [57] 0.818 µM

Source: ChEMBL document CHEMBL1201862, “PubChem BioAssay data set” (2004)
